From PubChem BioAssay (NCI)
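Briefly, cells in 96-well plates were exposed to five compound concentrations for 48 h, and endpoints were estimated by linear interpolation. Definition used: TGI = concentration required for complete inhibition of growth.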

Legend:
Test in all cases: NCI anticancer screen, dose series, 48 h
HCT-15 colon = tested on: HCT-15 colon
UACC-62 melanoma = tested on: UACC-62 melanoma
SNB-19 CNS = tested on: SNB-19 CNS
SF-268 CNS = tested on: SF-268 CNS
MALME-3M melanoma = tested on: MALME-3M melanoma
HCT-116 colon = tested on: HCT-116 colon
KM12 colon = tested on: KM12 colon
SF-539 CNS = tested on: SF-539 CNS
ACHN renal = tested on: ACHN renal
SK-OV-3 ovarian = tested on: SK-OV-3 ovarian
MDA-MB-231 breast = tested on: MDA-MB-231 breast
U251 CNS = tested on: U251 CNS
CCRF-CEM leukemia = tested on: CCRF-CEM leukemia
MDA-MB-435 = tested on: MDA-MB-435
COLO 205 colon = tested on: COLO 205 colon
OVCAR-8 ovarian = tested on: OVCAR-8 ovarian
SW-620 colon = tested on: SW-620 colon
SK-MEL-28 melanoma = tested on: SK-MEL-28 melanoma
HCC-2998 colon = tested on: HCC-2998 colon
T-47D breast = tested on: T-47D breast
A549 NSCLC = tested on: A549 NSCLC
UACC-257 melanoma = tested on: UACC-257 melanoma
OVCAR-4 ovarian = tested on: OVCAR-4 ovarian
RXF 393 renal = tested on: RXF 393 renal
UO-31 renal = tested on: UO-31 renal
SN12C renal = tested on: SN12C renal
PC-3 prostate = tested on: PC-3 prostate
786-0 renal = tested on: 786-0 renal
K-562 leukemia = tested on: K-562 leukemia
NCI/ADR-RES ovarian = tested on: NCI/ADR-RES ovarian
NCI-H460 lung = tested on: NCI-H460 lung
HOP-62 NSCLC = tested on: HOP-62 NSCLC
A498 renal = tested on: A498 renal
CAKI-1 renal = tested on: CAKI-1 renal
DU-145 prostate = tested on: DU-145 prostate
LOX IMVI melanoma = tested on: LOX IMVI melanoma
NCI-H23 lung = tested on: NCI-H23 lung
M14 melanoma = tested on: M14 melanoma
SK-MEL-5 melanoma = tested on: SK-MEL-5 melanoma
SF-295 CNS = tested on: SF-295 CNS
OVCAR-3 ovarian = tested on: OVCAR-3 ovarian
SK-MEL-2 melanoma = tested on: SK-MEL-2 melanoma
HL-60(TB) leukemia = tested on: HL-60(TB) leukemia
NCI-H522 lung = tested on: NCI-H522 lung
HT29 colon = tested on: HT29 colon
MCF7 breast = tested on: MCF7 breast
TK-10 renal = tested on: TK-10 renal
HS 578T breast = tested on: HS 578T breast
IGROV1 ovarian = tested on: IGROV1 ovarian
MDA-N = tested on: MDA-N
EKVX NSCLC = tested on: EKVX NSCLC
NCI-H226 lung = tested on: NCI-H226 lung
SNB-75 CNS = tested on: SNB-75 CNS

Measured: TGI

Nc1cnc(Nc2cccc3ccccc23)o1
> 10 µM: all assays above
